In patent US6706663B2, “Herbicidal 3-heterocyclic substituted benzisothiazole and benzisoxazole compounds” (Wyeth, priority 2000, dated 2004):

Columns and labels:
[1] = test system: TRZAWR (Wheat, Winter, cv Riband); test: Postemergence herbicidal evaluation; format: in vivo, Triticum aestivum; conditions: postemergence
In short: (§1)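 Seedlings grown about two weeks in flats, sprayed, then kept under standard greenhouse care. Rated visually 4–5 weeks after treatment on a 0–9 scale (stand, vigour, malformation, size, chlorosis, overall appearance) relative to untreated control; repeat tests averaged.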

[2] = test system: GLXMAW (Soybean, Williams); test: Preemergence herbicidal evaluation; format: in vivo, Glycine max, (L.) Merr. cv Williams; conditions: rated 4-5 weeks after treatment
ZEAMX (Corn, Field) = test: Preemergence herbicidal evaluation; format: in vivo, Zea mays, L.; conditions: rated 4-5 weeks after treatment
SETVI (Setaria viridis) [3] = test: Postemergence herbicidal evaluation; format: in vivo, (L.) Beau; conditions: postemergence
In short: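 Seedlings grown about two weeks were sprayed with compound in 50/50 acetone/water containing 0.5% TWEEN 20, at about 0.0040 to 1.000 kg/ha via nozzle at 40 psi. Plants were kept under greenhouse conditions and visually rated on a 0-9 scale versus control four to five weeks after treatment; replicate tests averaged.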

[4] = test system: MOOVA (Monochoria vaginalis); test: Flooded paddy, preemergence weed control; format: in vivo, Presl.; conditions: rated 3-4 weeks after treatment, 0-9 rating scale
In short: (§2)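 Preemergence, flooded: propagules planted at 0.5 cm depth in silt loam, water level maintained at 1.5 to 3 cm over soil, containers kept on greenhouse benches. Activity scored 0-9 by eye relative to a control plant.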

[5] = test system: IPOHE (Ipomoea hederacea); test: Postemergence herbicidal evaluation; format: in vivo, (L.) Jacq.; conditions: postemergence
In short: as §1

[6] = test system: ECHCG (Echinochloa crus-galli); test: Preemergence herbicidal evaluation; format: in vivo, (L.) Beau; conditions: rated 4-5 weeks after treatment
In short: (§3)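 Seeds planted in potting soil cups and sprayed preemergence with aqueous acetone compound solution. Greenhouse-grown; rated 4–5 weeks after treatment on a 0-9 visual scale (stand, vigor, malformation, size, chlorosis, appearance) versus control.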

SETVI (Setaria viridis) [7] = test: Preemergence herbicidal evaluation; format: in vivo, (L.) Beau; conditions: rated 4-5 weeks after treatment
In short: as §3

[8] = test system: ECHORC (Echinochloa oryzoides); test: Flooded paddy, preemergence weed control; format: in vivo, Echinochloa oryzoides (Ard.) Fritsch.; conditions: rated 3-4 weeks after treatment, 0-9 rating scale
In short: as §2

CYPIR (Cyperus iria) = test: Flooded paddy, preemergence weed control; format: in vivo; conditions: rated 3-4 weeks after treatment, 0-9 rating scale
In short: as §2

Row | SMILES | TRZAWR herbicidal rating ([1]; rate 0.0320 kg/ha) | TRZAWR herbicidal rating ([1]; rate 0.0620 kg/ha) | Preemergence herbicidal rating GLXMAW ([2]; Rate 0.0620 kg/ha) | Preemergence herbicidal rating GLXMAW ([2]; Rate 0.1250 kg/ha) | Preemergence herbicidal rating GLXMAW ([2]; Rate 0.2500 kg/ha) | Preemergence herbicidal rating ZEAMX (ZEAMX (Corn, Field); Rate 0.0620 kg/ha) | Preemergence herbicidal rating ZEAMX (ZEAMX (Corn, Field); Rate 0.1250 kg/ha) | Preemergence herbicidal rating ZEAMX (ZEAMX (Corn, Field); Rate 0.2500 kg/ha) | SETVI herbicidal rating (SETVI (Setaria viridis) [3]; rate 0.0320 kg/ha) | SETVI herbicidal rating (SETVI (Setaria viridis) [3]; rate 0.0620 kg/ha) | herbicidal rating, MOOVA ([4]; rate 0.0080 kg/ha) | herbicidal rating, MOOVA ([4]; rate 0.0320 kg/ha) | herbicidal rating, MOOVA ([4]; rate 0.1250 kg/ha) | IPOHE herbicidal rating ([5]; rate 0.0320 kg/ha) | IPOHE herbicidal rating ([5]; rate 0.0620 kg/ha) | Preemergence herbicidal rating ECHCG ([6]; Rate 0.0620 kg/ha) | Preemergence herbicidal rating ECHCG ([6]; Rate 0.1250 kg/ha) | Preemergence herbicidal rating ECHCG ([6]; Rate 0.2500 kg/ha) | Preemergence herbicidal rating SETVI (SETVI (Setaria viridis) [7]; Rate 0.0620 kg/ha) | Preemergence herbicidal rating SETVI (SETVI (Setaria viridis) [7]; Rate 0.1250 kg/ha) | also measured
1 | Cn1c(C(F)(F)F)cc(=O)n(-c2cc3c(C4OCCCO4)nsc3cc2F)c1=O [Compound 62, 3-(3-m-dioxan-2-yl-6-fluoro-1,2-benzisothiazol-5-yl)-1-methyl-6-(trifluoromethyl)uracil] | 6.5 | 6.5 | 9.0 | 9.0 | 9.0 | 9.0 | 9.0 | 9.0 | 9.0 | 9.0 | 8.0 | 9.0 | 9.0 | 9.0 | 9.0 | 9.0 | 9.0 | 9.0 | 9.0 | 9.0 | Preemergence herbicidal rating SETVI (SETVI (Setaria viridis) [7]; Rate 0.2500 kg/ha): 9.0; herbicidal rating, ECHORC ([8]; rate 0.0080 kg/ha): 8.5; herbicidal rating, ECHORC ([8]; rate 0.0320 kg/ha): 9.0; herbicidal rating, ECHORC ([8]; rate 0.1250 kg/ha): 9.0; herbicidal rating, CYPIR (CYPIR (Cyperus iria); rate 0.0080 kg/ha): 4.5; herbicidal rating, CYPIR (CYPIR (Cyperus iria); rate 0.0320 kg/ha): 9.0; herbicidal rating, CYPIR (CYPIR (Cyperus iria); rate 0.1250 kg/ha): 9.0
2 | COCC1COC(c2nsc3ccc(-n4c(=O)cc(C(F)(F)F)n(C)c4=O)cc23)O1 (stereo not drawn) [Compound 64, 3-[3-[4-(methoxymethyl)-1,3-dioxolan-2-yl]-1,2-benzisothiazol-5-yl]-1-methyl-6-(trifluoromethyl)uracil] | 4.0 | 5.0 | 9.0 | 9.0 | 9.0 | 8.5 | 9.0 | 9.0 | 6.0 | 7.0 | 0.0 | 9.0 | 9.0 | 9.0 | 9.0 | 9.0 | 9.0 | 9.0 | 9.0 | 9.0 | Preemergence herbicidal rating SETVI (SETVI (Setaria viridis) [7]; Rate 0.2500 kg/ha): 9.0; herbicidal rating, ECHORC ([8]; rate 0.0080 kg/ha): 1.5; herbicidal rating, ECHORC ([8]; rate 0.0320 kg/ha): 9.0; herbicidal rating, ECHORC ([8]; rate 0.1250 kg/ha): 9.0; herbicidal rating, CYPIR (CYPIR (Cyperus iria); rate 0.0080 kg/ha): 1.5; herbicidal rating, CYPIR (CYPIR (Cyperus iria); rate 0.0320 kg/ha): 6.0; herbicidal rating, CYPIR (CYPIR (Cyperus iria); rate 0.1250 kg/ha): 9.0
3 | CC1=CC(C)(C)OC(c2nsc3ccc(-n4c(=O)cc(C(F)(F)F)n(C)c4=O)cc23)C1 (stereo not drawn) [Compound 65, 3-[3-(3,6-dihydro-4,6,6-trimethyl-2H-pyran-2-yl)-1,2-benzisothiazol-5-yl]-1-methyl-6-(trifluoromethyl)uracil] | 4.0 | 5.0 | 2.0 | 3.0 | 6.0 | 7.0 | 8.0 | 9.0 | 3.0 | 7.0 | 0.0 | 0.0 | 3.0 | 9.0 | 9.0 | 9.0 | 9.0 | 9.0 | 9.0 | 9.0 | Preemergence herbicidal rating SETVI (SETVI (Setaria viridis) [7]; Rate 0.2500 kg/ha): 9.0; herbicidal rating, ECHORC ([8]; rate 0.0080 kg/ha): 0.0; herbicidal rating, ECHORC ([8]; rate 0.0320 kg/ha): 0.0; herbicidal rating, ECHORC ([8]; rate 0.1250 kg/ha): 7.0; herbicidal rating, CYPIR (CYPIR (Cyperus iria); rate 0.0080 kg/ha): 0.0; herbicidal rating, CYPIR (CYPIR (Cyperus iria); rate 0.0320 kg/ha): 0.0; herbicidal rating, CYPIR (CYPIR (Cyperus iria); rate 0.1250 kg/ha): 9.0
